This note sets out measurements from PubChem BioAssay (NCI).

Values joined by “and” are separate entries in the source; they are usually repeats but may differ in a detail not shown here. Equal values may be shown once.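 Test compounds were applied to cells in 96-well plates for 48 hours at 5 doses. Here, GI50 denotes the concentration required for 50% inhibition of growth. Definition used: TGI = concentration required for complete inhibition of growth.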

For one test, the system named is OVCAR-3 ovarian. As to the kind of experiment: inhibition of tumour cell growth, NCI panel, 48 h.
With `COC(=O)[C@@H]1CC(C(C[N+](=O)[O-])c2ccc(O[Si](C)(C)C(C)(C)C)cc2)C(=O)N1C(=O)OC(C)(C)C` (stereo partly specified), the TGI is over 100 µM.

For another test, the system named is COLO 205 colon. As to the kind of experiment: inhibition of tumour cell growth, NCI panel, 48 h.
In the case of `CCN1CCC(C)OP1(=O)Cc1ccccc1` (stereo unspecified), the TGI was over 100 µM.
`CNC(=O)C1(N)c2ccccc2C=Cc2ccccc21` yielded a TGI of over 100 µM.
Turning to `O=C(c1ccccc1)c1ccc2nc(-c3c(Cl)c(Cl)c(Cl)c(Cl)c3C(=O)N/N=C/c3ccc(Cl)cc3)[nH]c2c1`, the TGI is over 100 µM.
`CCC(C=O)P1(=O)OC(C)(C)CN1C(C)(C)C` (stereo unspecified): the TGI is over 100 µM.
Consider `O=C(NNCC(O)COc1ccccc1)c1ccccc1` (stereo unspecified), for which the TGI is over 100 µM.
On to `COC(=O)[C@@H]1CC(C(C[N+](=O)[O-])c2ccc(O[Si](C)(C)C(C)(C)C)cc2)C(=O)N1C(=O)OC(C)(C)C` (stereo partly specified), for which the GI50 was > 100 µM and 26.2 µM; the TGI is over 100 µM.

Another test deals with OVCAR-5 ovarian. As to the kind of experiment: inhibition of tumour cell growth, NCI panel, 48 h.
For the compound `CCN1CCC(C)OP1(=O)Cc1ccccc1` (stereo unspecified), the TGI was over 100 µM.
The compound `CNC(=O)C1(N)c2ccccc2C=Cc2ccccc21` gave a TGI of over 100 µM.
`O=C(c1ccccc1)c1ccc2nc(-c3c(Cl)c(Cl)c(Cl)c(Cl)c3C(=O)N/N=C/c3ccc(Cl)cc3)[nH]c2c1` gave a TGI of over 100 µM.
Turning to `CCc1nn(CN2CCOCC2)c(=S)n1/N=C/c1ccc(-c2ccc(Cl)cc2)o1`, the TGI was over 100 µM.
`CCC(C=O)P1(=O)OC(C)(C)CN1C(C)(C)C` (stereo unspecified) displayed a TGI of over 100 µM.
With `O=C(NNCC(O)COc1ccccc1)c1ccccc1` (stereo unspecified), the TGI is over 100 µM.
In turn, `COC(=O)[C@@H]1CC(C(C[N+](=O)[O-])c2ccc(O[Si](C)(C)C(C)(C)C)cc2)C(=O)N1C(=O)OC(C)(C)C` (stereo partly specified) displayed a TGI of over 100 µM.

A further test has as its system M14 melanoma. As to the kind of experiment: inhibition of tumour cell growth, NCI panel, 48 h.
As for `CCN1CCC(C)OP1(=O)Cc1ccccc1` (stereo unspecified), the TGI is over 100 µM.
`CNC(=O)C1(N)c2ccccc2C=Cc2ccccc21` had a TGI of over 100 µM.
The same measure, in the same setting: in the case of `O=C(c1ccccc1)c1ccc2nc(-c3c(Cl)c(Cl)c(Cl)c(Cl)c3C(=O)N/N=C/c3ccc(Cl)cc3)[nH]c2c1` it was over 100 µM; in that of `CCc1nn(CN2CCOCC2)c(=S)n1/N=C/c1ccc(-c2ccc(Cl)cc2)o1`, over 100 µM; in that of `CCC(C=O)P1(=O)OC(C)(C)CN1C(C)(C)C` (stereo unspecified), over 100 µM.
The same measure, in the same setting: in the case of `O=C(NNCC(O)COc1ccccc1)c1ccccc1` (stereo unspecified) it was over 100 µM; in that of `COC(=O)[C@@H]1CC(C(C[N+](=O)[O-])c2ccc(O[Si](C)(C)C(C)(C)C)cc2)C(=O)N1C(=O)OC(C)(C)C` (stereo partly specified), over 100 µM.

The subject of a further test is SF-539 CNS. The test is described as follows: inhibition of tumour cell growth, NCI panel, 48 h.
For `CCN1CCC(C)OP1(=O)Cc1ccccc1` (stereo unspecified), the TGI is over 100 µM.
Still for that read-out and setting: in the case of `CNC(=O)C1(N)c2ccccc2C=Cc2ccccc21` it was over 100 µM; in that of `O=C(c1ccccc1)c1ccc2nc(-c3c(Cl)c(Cl)c(Cl)c(Cl)c3C(=O)N/N=C/c3ccc(Cl)cc3)[nH]c2c1`, over 100 µM.
For `CCc1nn(CN2CCOCC2)c(=S)n1/N=C/c1ccc(-c2ccc(Cl)cc2)o1`, the TGI is over 100 µM.
Same read-out and setting: in the case of `CCC(C=O)P1(=O)OC(C)(C)CN1C(C)(C)C` (stereo unspecified) it was over 100 µM.
On to `O=C(NNCC(O)COc1ccccc1)c1ccccc1` (stereo unspecified), for which the TGI was over 100 µM.
Still for that read-out and setting: in the case of `COC(=O)[C@@H]1CC(C(C[N+](=O)[O-])c2ccc(O[Si](C)(C)C(C)(C)C)cc2)C(=O)N1C(=O)OC(C)(C)C` (stereo partly specified) it was over 100 µM.

The next test deals with KM12 colon. As to the kind of experiment: inhibition of tumour cell growth, NCI panel, 48 h.
Take `CCN1CCC(C)OP1(=O)Cc1ccccc1` (stereo unspecified): the TGI was over 100 µM.
In the case of `CNC(=O)C1(N)c2ccccc2C=Cc2ccccc21`, the TGI was over 100 µM.
Same read-out and setting: in the case of `O=C(c1ccccc1)c1ccc2nc(-c3c(Cl)c(Cl)c(Cl)c(Cl)c3C(=O)N/N=C/c3ccc(Cl)cc3)[nH]c2c1` it was over 100 µM; in that of `CCc1nn(CN2CCOCC2)c(=S)n1/N=C/c1ccc(-c2ccc(Cl)cc2)o1`, over 100 µM; in that of `CCC(C=O)P1(=O)OC(C)(C)CN1C(C)(C)C` (stereo unspecified), over 100 µM.
`O=C(NNCC(O)COc1ccccc1)c1ccccc1` (stereo unspecified) showed a TGI of over 100 µM.
Still for that read-out and setting: in the case of `COC(=O)[C@@H]1CC(C(C[N+](=O)[O-])c2ccc(O[Si](C)(C)C(C)(C)C)cc2)C(=O)N1C(=O)OC(C)(C)C` (stereo partly specified) it was over 100 µM.

The subject of a further test is UO-31 renal. As to the kind of experiment: inhibition of tumour cell growth, NCI panel, 48 h.
In turn, `CCN1CCC(C)OP1(=O)Cc1ccccc1` (stereo unspecified) yielded a TGI of over 100 µM.
The same measure, in the same setting: in the case of `CNC(=O)C1(N)c2ccccc2C=Cc2ccccc21` it was over 100 µM; in that of `O=C(c1ccccc1)c1ccc2nc(-c3c(Cl)c(Cl)c(Cl)c(Cl)c3C(=O)N/N=C/c3ccc(Cl)cc3)[nH]c2c1`, over 100 µM.
The same measure, in the same setting: in the case of `CCc1nn(CN2CCOCC2)c(=S)n1/N=C/c1ccc(-c2ccc(Cl)cc2)o1` it was over 100 µM; in that of `CCC(C=O)P1(=O)OC(C)(C)CN1C(C)(C)C` (stereo unspecified), over 100 µM.
On the same count and under the same terms, in the case of `O=C(NNCC(O)COc1ccccc1)c1ccccc1` (stereo unspecified) it was over 100 µM.
For `COC(=O)[C@@H]1CC(C(C[N+](=O)[O-])c2ccc(O[Si](C)(C)C(C)(C)C)cc2)C(=O)N1C(=O)OC(C)(C)C` (stereo partly specified), the TGI is over 100 µM.

The next test concerns SR leukemia. The test is described as follows: inhibition of tumour cell growth, NCI panel, 48 h.
With `CCN1CCC(C)OP1(=O)Cc1ccccc1` (stereo unspecified), the TGI is over 100 µM.
Still for that read-out and setting: in the case of `CNC(=O)C1(N)c2ccccc2C=Cc2ccccc21` it was over 100 µM.
The same measure, in the same setting: in the case of `O=C(c1ccccc1)c1ccc2nc(-c3c(Cl)c(Cl)c(Cl)c(Cl)c3C(=O)N/N=C/c3ccc(Cl)cc3)[nH]c2c1` it was over 100 µM.
`CCc1nn(CN2CCOCC2)c(=S)n1/N=C/c1ccc(-c2ccc(Cl)cc2)o1`: the TGI was over 100 µM.
Same read-out and setting: in the case of `CCC(C=O)P1(=O)OC(C)(C)CN1C(C)(C)C` (stereo unspecified) it was over 100 µM; in that of `COC(=O)[C@@H]1CC(C(C[N+](=O)[O-])c2ccc(O[Si](C)(C)C(C)(C)C)cc2)C(=O)N1C(=O)OC(C)(C)C` (stereo partly specified), over 100 µM.

Another test concerns T-47D breast. The test is described as follows: inhibition of tumour cell growth, NCI panel, 48 h.
The compound `CCN1CCC(C)OP1(=O)Cc1ccccc1` (stereo unspecified) registered a TGI of over 100 µM.
Still for that read-out and setting: in the case of `CNC(=O)C1(N)c2ccccc2C=Cc2ccccc21` it was over 100 µM; in that of `O=C(c1ccccc1)c1ccc2nc(-c3c(Cl)c(Cl)c(Cl)c(Cl)c3C(=O)N/N=C/c3ccc(Cl)cc3)[nH]c2c1`, 88 µM; in that of `CCc1nn(CN2CCOCC2)c(=S)n1/N=C/c1ccc(-c2ccc(Cl)cc2)o1`, over 100 µM.
As for `CCC(C=O)P1(=O)OC(C)(C)CN1C(C)(C)C` (stereo unspecified), the TGI was over 100 µM.
In turn, `O=C(NNCC(O)COc1ccccc1)c1ccccc1` (stereo unspecified) yielded a TGI of over 100 µM.
Consider `COC(=O)[C@@H]1CC(C(C[N+](=O)[O-])c2ccc(O[Si](C)(C)C(C)(C)C)cc2)C(=O)N1C(=O)OC(C)(C)C` (stereo partly specified), for which the TGI was over 100 µM.
